Laboratory results taken from PubChem BioAssay AID248 (DTP/NCI, 2004).
Inconclusive results and toxic doses are left out. Rule as the data show it: active = T/C of 150% or more; inactive = T/C below 125%.

System: L1210 leukemia ip in BDF1 mice, survival T/C
Test: NCI In Vivo Anticancer Drug Screen. Data for tumor model L1210 Leukemia (intraperitoneal) in B6D2F1 (BDF1) mice
Details: endpoint: mean survival time, higher = longer survival
Method in brief: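 Read-out is survival time, reported as the treated-group measurement over the vehicle-control measurement.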

[1] = dose: 100.0 mg/kg/injection, schedule: Q01DX009 (ip), vehicle: Klucel (hydroxypropylcellulose) (HPC)
[2] = dose: 200.0 mg/kg/injection, schedule: Q01DX009 (ip), vehicle: Klucel (hydroxypropylcellulose) (HPC)
[3] = dose: 400.0 mg/kg/injection, schedule: Q01DX009 (ip), vehicle: Klucel (hydroxypropylcellulose) (HPC)
[4] = dose: 100.0 mg/kg/injection, schedule: Q04DX003 (ip), vehicle: Klucel (hydroxypropylcellulose) (HPC)
[5] = dose: 200.0 mg/kg/injection, schedule: Q04DX003 (ip), vehicle: Klucel (hydroxypropylcellulose) (HPC)
[6] = dose: 400.0 mg/kg/injection, schedule: Q04DX003 (ip), vehicle: Klucel (hydroxypropylcellulose) (HPC)
[7] = dose: 100.0 mg/kg/injection, schedule: Q01DX001 (ip), vehicle: carboxymethylcellulose (CMC)
[8] = dose: 200.0 mg/kg/injection, schedule: Q01DX001 (ip), vehicle: carboxymethylcellulose (CMC)
[9] = dose: 400.0 mg/kg/injection, schedule: Q01DX001 (ip), vehicle: carboxymethylcellulose (CMC)
[10] = dose: 50.0 mg/kg/injection, schedule: Q01DX001 (ip), vehicle: Klucel (hydroxypropylcellulose) (HPC)
[11] = dose: 100.0 mg/kg/injection, schedule: Q01DX001 (ip), vehicle: Klucel (hydroxypropylcellulose) (HPC)
[12] = dose: 100.0 mg/kg/injection, schedule: Q01DX009 (ip), vehicle: saline with Tween-80
[13] = dose: 200.0 mg/kg/injection, schedule: Q01DX009 (ip), vehicle: saline with Tween-80
[14] = dose: 400.0 mg/kg/injection, schedule: Q01DX009 (ip), vehicle: saline with Tween-80

Measured: T/C

CCN1/C(=C\c2ccc3cc(OC)ccc3[n+]2CC)[Se]c2ccc(OC)cc21
inactive: dose: 1.0 mg/kg/injection, schedule: Q01DX001 (ip), vehicle: other 98 % of control | dose: 2.0 mg/kg/injection, schedule: Q01DX001 (ip), vehicle: other 103 % of control | dose: 4.0 mg/kg/injection, schedule: Q01DX001 (ip), vehicle: other 103 % of control

CCCC(C=NCC(CCC)(CCN(C)C)c1cccc2ccccc12)(CCN(C)C)c1cccc2ccccc12 (stereo not drawn)
inactive: dose: 6.25 mg/kg/injection, schedule: Q04DX002 (ip), vehicle: Klucel (hydroxypropylcellulose) (HPC) 88 % of control | dose: 12.5 mg/kg/injection, schedule: Q04DX002 (ip), vehicle: Klucel (hydroxypropylcellulose) (HPC) 101 % of control | dose: 25.0 mg/kg/injection, schedule: Q04DX002 (ip), vehicle: Klucel (hydroxypropylcellulose) (HPC) 104 % of control

CCCCCCCC[N+](C)(CCCCCCCC)CCCCCCCC
inactive: dose: 0.04 mg/kg/injection, schedule: Q01DX009 (ip), vehicle: saline 86 % of control | dose: 0.09 mg/kg/injection, schedule: Q01DX009 (ip), vehicle: saline 100 % of control | dose: 0.19 mg/kg/injection, schedule: Q01DX009 (ip), vehicle: saline 101 % of control | dose: 0.19 mg/kg/injection, schedule: Q04DX003 (ip), vehicle: acetone 112 % of control | dose: 0.28 mg/kg/injection, schedule: Q01DX009 (ip), vehicle: saline with Tween-80 114 % of control | dose: 0.39 mg/kg/injection, schedule: Q01DX001 (ip), vehicle: saline with Tween-80 105 % of control | dose: 0.43 mg/kg/injection, schedule: Q01DX009 (ip), vehicle: saline with Tween-80 116 % of control | dose: 0.5 mg/kg/injection, schedule: Q01DX015 (ip), vehicle: saline 97 % of control | dose: 0.64 mg/kg/injection, schedule: Q01DX009 (ip), vehicle: saline with Tween-80 118 % of control | dose: 0.78 mg/kg/injection, schedule: Q01DX001 (ip), vehicle: saline with Tween-80 90 % of control | dose: 1.0 mg/kg/injection, schedule: Q01DX015 (ip), vehicle: saline 95 % of control | dose: 1.56 mg/kg/injection, schedule: Q01DX001 (ip), vehicle: saline with Tween-80 114 % of control

COc1ccc(OC)c(NC(=O)Nc2cc(OC)c(Cl)cc2OC)c1
inactive: [1] 105 % of control | [2] 94 % of control | [3] 87 % of control

CCOC(=O)c1occ(Cl)c1Cl
inactive: dose: 100.0 mg/kg/injection, schedule: Q01DX001 (ip), vehicle: saline 107 % of control | dose: 200.0 mg/kg/injection, schedule: Q01DX001 (ip), vehicle: saline 113 % of control

CC1CCC2(CC1=O)C(C)CC(=O)C2C(C)C (stereo not drawn)
inactive: dose: 100.0 mg/kg/injection, schedule: Q01DX009 (ip), vehicle: saline 94 % of control | dose: 200.0 mg/kg/injection, schedule: Q01DX009 (ip), vehicle: saline 102 % of control | dose: 400.0 mg/kg/injection, schedule: Q01DX009 (ip), vehicle: saline 98 % of control

c1ccc(-c2ccc([Si](c3ccccc3)(c3ccccc3)c3ccccc3)cc2)cc1
inactive: [1] 102 % of control | [4] 105 % of control | [2] 96 % of control | [5] 94 % of control | [3] 93 % of control | [6] 96 % of control

COc1ccc(OC)c(NC(=O)c2cccc(N(CCCl)CCCl)c2)c1
inactive: dose: 100.0 mg/kg/injection, schedule: Q01DX001 (ip), vehicle: other 98 % of control | dose: 200.0 mg/kg/injection, schedule: Q01DX001 (ip), vehicle: other 95 % of control | dose: 400.0 mg/kg/injection, schedule: Q01DX001 (ip), vehicle: other 104 % of control

Nc1ccc2c(c1)C(=O)c1cc(N)ccc1-2
inactive: [7] 102 % of control | [4] 103 % of control | [8] 102 % of control | [5] 103 % of control | [9] 98 % of control | [6] 108 % of control

c1ccc(N=C(Nc2ccccc2)c2ccccc2)cc1
inactive: dose: 100.0 mg/kg/injection, schedule: Q04DX002 (ip), vehicle: Klucel (hydroxypropylcellulose) (HPC) 103 % of control | dose: 100.0 mg/kg/injection, schedule: Q04DX003 (ip), vehicle: saline with Tween-80 94 % of control | dose: 200.0 mg/kg/injection, schedule: Q04DX002 (ip), vehicle: Klucel (hydroxypropylcellulose) (HPC) 111 % of control | dose: 200.0 mg/kg/injection, schedule: Q04DX003 (ip), vehicle: saline with Tween-80 91 % of control | dose: 400.0 mg/kg/injection, schedule: Q04DX003 (ip), vehicle: saline with Tween-80 92 % of control

CN(C)CCCNC(=O)Nc1ccc(Cl)cc1
inactive: dose: 100.0 mg/kg/injection, schedule: Q04DX002 (ip), vehicle: other 101 % of control | dose: 200.0 mg/kg/injection, schedule: Q04DX002 (ip), vehicle: other 101 % of control | dose: 400.0 mg/kg/injection, schedule: Q04DX002 (ip), vehicle: other 97 % of control

O=[N+]([O-])c1cc(Br)cc2c1nc(NCCO)c1ccccc12
inactive: [4] 103 % of control | [5] 119 % of control | [6] 101 % of control

Cc1cc(/C=N/N2CCN(/N=C/c3cc(C)n(-c4ccccc4)c3C)CC2)c(C)n1-c1ccccc1
inactive: [7] 95 % of control | [8] 88 % of control | [9] 90 % of control

O=[N+]([O-])c1ccc(C2=NC(c3ccccc3)CO2)cc1 (stereo not drawn)
inactive: [10] 96 % of control | [11] 112 % of control | dose: 200.0 mg/kg/injection, schedule: Q01DX001 (ip), vehicle: Klucel (hydroxypropylcellulose) (HPC) 94 % of control

O=C1NC(=O)C(Cc2ccc(Cl)cc2)C(=O)N1
inactive: [12] 103 % of control | dose: 100.0 mg/kg/injection, schedule: Q04DX002 (ip), vehicle: saline with Tween-80 93 % of control | [13] 98 % of control | dose: 200.0 mg/kg/injection, schedule: Q04DX002 (ip), vehicle: saline with Tween-80 101 % of control | [14] 98 % of control | dose: 400.0 mg/kg/injection, schedule: Q04DX002 (ip), vehicle: saline with Tween-80 101 % of control

O=c1[nH]c(=S)[nH]cc1Cc1cccc2ccccc12
inactive: dose: 25.0 mg/kg/injection, schedule: Q01DX001 (ip), vehicle: Klucel (hydroxypropylcellulose) (HPC) 104 % of control | [10] 94 % of control | [11] 92 % of control

CCOC(=O)/C=C/Oc1cc(Cl)c(Cl)cc1Cl
inactive: [12] 110 % of control | [13] 92 % of control | [14] 93 % of control

CCN(CC)C(=O)c1cc(NC(=O)Nc2ccc(C3=NCCN3)cc2)cc(NC(=O)Nc2ccc(C3=NCCN3)cc2)c1
inactive: dose: 62.0 mg/kg/injection, schedule: Q01DX Z (ip), vehicle: carboxymethylcellulose (CMC) 91 % of control | dose: 125.0 mg/kg/injection, schedule: Q01DX Z (ip), vehicle: carboxymethylcellulose (CMC) 97 % of control | dose: 250.0 mg/kg/injection, schedule: Q01DX Z (ip), vehicle: carboxymethylcellulose (CMC) 97 % of control | dose: 500.0 mg/kg/injection, schedule: Q01DX Z (ip), vehicle: carboxymethylcellulose (CMC) 88 % of control

CCOC(=O)CSc1nc2nc(Cl)c(Cl)nc2[nH]1
inactive: dose: 25.0 mg/kg/injection, schedule: Q01DX009 (ip), vehicle: saline with Tween-80 104 % of control | dose: 50.0 mg/kg/injection, schedule: Q01DX009 (ip), vehicle: saline with Tween-80 98 % of control | [12] 105 % of control | [13] 96 % of control
